Experimental data as given in US20100094407A1, “Multiple Bioactive Agent Eluting Stents” (Medtronic Vascular, Inc., priority 2008, published 2010).

Test: Elution of fluocinolone and zotarolimus from coated stents, Example 1
Type: physicochemical
Conditions: 60 μg zotarolimus with or without 80 μg fluocinolone; FIG. 4
Excerpt: In one embodiment, the present disclosure relates to a multiple bioactive agent eluting stent comprising a stent framework, at least two bioactive agents on the stent framework, wherein one or more of the at least two bioactive agents affects the elution rate of one or more of the other of the at least two bioactive agents. The elution rate or profile of the bioactive agents can be determined utilizing the methods showing in Examples 1 and 2 below. For example, total cumulative release of applied bioactive agents can be measured to determine total daily release and also release over a period of time greater than one day. The at least two bioactive agents may be applied together onto a stent framework. There may be one coating which contains all of the bioactive agents. Alternatively, the bioactive agents can be applied to the stent framework in separate coatings. Each coating may contain just one bioactive agent or more than one bioactive agent. The coatings may constitute separate layers. There can also be a base layer and cap layer on the stent framework. Base layer is located closest to the stent framework and the cap layer is a layer which is located furthest away from the stent framework. The layers can be uniform or non-uniform, meaning the layers can be in the form of, for example, dots or stripes or other non-uniform patterns.
12 mm parylene coated stents were used for all builds. […]

zotarolimus elution rate / total cumulative release, combination with fluocinolone vs zotarolimus alone: increased
Structure (SMILES): CO[C@H]1C[C@@H]2CC[C@@H](C)[C@@](O)(O2)C(=O)C(=O)N2CCCC[C@H]2C(=O)O[C@H]([C@H](C)C[C@@H]2CC[C@H](n3cnnn3)[C@H](OC)C2)CC(=O)[C@H](C)/C=C(\C)[C@@H](O)[C@@H](OC)C(=O)[C@H](C)C[C@H](C)/C=C/C=C/C=C/1C [zotarolimus]
